Test [1] relates to E. coli strain JP750. The test is classed as cell-based, Escherichia coli. The conditions noted are these: for chromosome morphology: 2 hours treatment; for cell length: cell elongation, FIG. 2 / FIG. 3; for chromosomes exhibiting doughnut or ring shape: lethal dose (MIC), 2 hours, n=50. As for the experimental part: The dose-dependent cytological profiles for the various classes of antibiotics was determined. In general, a series of cultures of the appropriate strain were grown in LB at 30° C. until the cultures reached a density of approximately 2×10^8 cells/ml, at which point the compound of interest was added so that the final concentrations ranged from 0 to 200 μg/ml. For each compound, samples representing ⅕×, 1× and 5× the MIC were examined. Samples were taken at various times after addition of drug (ranging from 0.2 to 3 hours). The cells were stained with FM 4-64 (1 μg/ml) to visualize the cell membranes and DAPI (5 μg/ml) to visualize the chromosome (Pogliano et al. (1999) Mol. Microbiol. 31:1149).
Images of each stain and any fluorescently-tagged fusion protein present in the strain were then captured using a high resolution microscope. Cell length and width, chromosome length and shape, distance of the chromosome from each cell pole, the number of chromosomes per cell, and the presence and distribution of GFP (or GFP fusions) present within the cells were measured.
Strain JP750 expresses a SeqA-GFP fusion from an IPTG dependent promoter. SeqA-GFP forms fluorescent foci that indicate the position of DNA replication forks/hemimethylated DNA within the cell (Brendler et al. (2000) EMBO 19:6249). After two hours of growth, samples were taken, stained with FM 4-64 (1 μg/ml) to visualize the cell membranes, and DAPI (5 μg/ml) to visualize the chromosome.

Test [2] concerns E. coli strains JP750 or W3110. In words: Determination of MIC (growth in LB with antibiotic). Type of test: cell-based. As to conditions: Escherichia coli, read-out: minimal inhibitory concentration (MIC). As for the experimental part:
The minimal inhibitory concentration (MIC) of each antibiotic was determined for E. coli strains JP750 or W3110, and for Bacillus subtilis strain PY79. A test tube containing 5 ml of LB was inoculated with a single colony and grown until the culture reached a density of approximately 2×10^8 cells/ml. Small inoculums (20 μl) of this culture were then diluted into LB containing various concentrations of antibiotic ranging from 0 to 200 μg/ml and the cultures were incubated overnight at 30° C. The MIC was the lowest concentration that blocked growth.

Test [3] relates to E. coli. Kind of test: Growth curve (optical density at 600 nm). The test is classed as cell-based, Escherichia coli.
For test [4], the system named is Escherichia coli and Bacillus subtilis cells. Kind of test: Summary of cytological profiles by mechanism of action (FIG. 1). The test is classed as cell-based. As to conditions: example compound of the MOA class. As for the experimental part: FIG. 1. Summary of cytological profiles for drugs with the indicated mechanisms of action (MOA).
To determine if different classes of antimicrobials can be distinguished based on cytological parameters, comparative cytological analysis of Escherichia coli and Bacillus subtilis cells treated with several different classes of antibiotics was performed. […] Also included were nonspecific inhibitors such as bleach, ethidium bromide, and sodium docecyl sulfate. […] This analysis is expanded to molecules with unknown MOAs as described below.

Test [5] deals with Bacillus subtilis. Kind of test: Cytological profiling of Bacillus subtilis (FM 4-64, DAPI, Sytox Green). The conditions noted are these: FIG. 8. Type of test: cell-based. As for the experimental part:
(§1) FIG. 8. Affect of various treatments on Bacillus subtilis cell architecture and permeability. (A-J) Cytological profiling. Cells were stained with the membrane stain FM 4-64 (red) and the membrane impermeable nucleotide stains Sytox Green (green) and DAPI (blue) and visualized 2 hours after treatment unless otherwise noted. […] Cells imaged after 1 hr of treatment. […] Cells were imaged after 8 hours. (K) Cell permeability as assessed by Sytox staining intensity per pixel.
The effects of these drugs on the Gram positive bacterium Bacillus subtilis was determined using the fluorescent membrane stain FM 4-64 and two nucleotide stains that are membrane impermeable (DAPI and Sytox).

Test [6] deals with proton motive force (PMF). In words: DiSC3(5) fluorometer assay of proton motive force. The test is classed as cell-based, Bacillus subtilis. The conditions noted are these: vancomycin at the MIC. As for the experimental part:
as §1
The fluorescent stain DiSC3(5) was used in a fluorometer assay, in which cells with a decreased PMF show increased fluorescence.

Test [7] relates to E. coli imp strain. In words: Cytological profiling of E. coli imp strain (DAPI staining intensity). The test is classed as cell-based, Escherichia coli. The conditions noted are these: 10 minute exposure, FIG. 10. As for the experimental part: FIG. 10. Measurements of DAPI staining for single cells after 10 minute exposure to nisin, Spirohexenolide A, chlorothricin, and DMSO. […] Cells treated with nisin, SpiroA, and chlorothricin show increased fluorescence comparted to untreated control.
Cytological profiling was used to determine the MOA of spirohexenolide A. A culture of the E. coli imp strain was grown in LB media at 30° C. and spirohexenolide A was added at various concentrations. After either 10 minutes or two hours, samples were stained with FM 4-64 and DAPI for examination with a fluorescence microscope. The cytological profile of spirohexenolide A was identical to that for nisin, a compound that forms channels in the membrane. Chromosome stains such as DAPI and Sytox green are partially excluded from the cell by the cytoplasmic membrane in untreated cells, but are taken up in cells treated with permeablizers such as nisin.

Test [8] concerns gram positive bacteria and the E. coli imp mutant. The conditions noted are these: Kang et al. (2009); Pache & Champman (1972); cited from earlier work.
In test [9] the test system is E. coli strain JP750. As to conditions: Pogliano et al. 1997; cited from earlier work.

≈ marks a conversion by molar mass, not a printed value. Like-named read-outs stand apart in the source and are kept apart here.

As for polymyxin B, the “cytological profile compared with reference” value in test [1] (two hours at the MIC) is “cytological profile similar to CHIR-090”.
For `CCn1cc(C(=O)O)c(=O)c2ccc(C)nc21` [nalidixic acid], the MIC in [2] was 0.5 µg/mL (≈ 2.15 µM). Besides, in test [1], the “chromosome morphology” value was “elongated chromosomes” and the “cell length” value is recorded as “caused elongation”. In addition, in test [1] (LB, 30° C., FIG. 2), the SeqA-GFP foci distribution result is “highly elongated chromosomes in which the SeqA foci are clustered together”. Besides, the “effect on growth (optical density at 600 nm)” value in [3] (five-fold below the MIC) is reported as “no detectable effect on growth”. In test [3] (lethal dose (1×MIC)), the effect on growth result is recorded as “reduced growth”. Moreover, in test [4], the “cytological profile (FIG. 1 summary)” value is “produces elongated cells with centrally localized and fragmented DNA”.
`CN[C@H](CC(C)C)C(=O)N[C@H]1C(=O)N[C@@H](CC(N)=O)C(=O)N[C@H]2C(=O)N[C@H]3C(=O)N[C@H](C(=O)N[C@H](C(=O)O)c4cc(O)cc(O)c4-c4cc3ccc4O)[C@H](O)c3ccc(c(Cl)c3)Oc3cc2cc(c3O[C@@H]2O[C@H](CO)[C@@H](O)[C@H](O)[C@H]2O[C@H]2C[C@](C)(N)[C@H](O)[C@H](C)O2)Oc2ccc(cc2Cl)[C@H]1O` [vancomycin]: in test [5], the “cytological phenotype (membrane, chromosome, permeability)” value (from here on “cytological phenotype”) was “internal membrane vesicles and increased DAPI and Sytox permeability in a subset of the cells”. Further, the “effect on proton motive force / membrane polarization” value in test [6] was “no effect on PMF”. In addition, in [4], the “cytological profile (FIG. 1 summary)” value was “produces large internal membrane vesicles”.
Turning to `COc1ccc(Cl)c(C)c1C(=O)O[C@@H]1C[C@H](O[C@H]2[C@H](O)C[C@H](O[C@H]3CCC[C@@H]4[C@@H]3C=C[C@H]3CCCC/C=C/[C@@H]5C=C(C(=O)O)[C@H](C)C[C@]56OC(=O)C(=C6O)OC(=O)[C@@]43C)O[C@@H]2C)O[C@H](C)[C@H]1O` [chlorothricin], the “DAPI staining” value in test [7] is “increased DAPI staining”. For the same compound, the antibacterial spectrum result in test [8] is “active against gram positive bacteria and the E. coli imp mutant”.
On to `[H]/N=C(/N)N[C@H]1[C@H](O)[C@@H](O)[C@H](O[C@@H]2O[C@@H](C)[C@](O)(C=O)[C@H]2O[C@@H]2O[C@@H](CO)[C@H](O)[C@@H](O)[C@@H]2NC)[C@@H](N/C(N)=N\[H])[C@@H]1O` [streptomycin], for which, in test [2] (LB, overnight at 30° C.), the MIC was 50 µg/mL (≈ 86 µM). Besides, the “chromosome morphology” value in test [1] is reported as “condensed chromosomes but not ring formation”.
On to `O=C(N[C@H](CO)[C@H](O)c1ccc([N+](=O)[O-])cc1)C(Cl)Cl` [chloramphenicol], for which the MIC in test [2] (LB, overnight at 30° C.) came to 5 µg/mL (≈ 15.5 µM). Besides, in [1], the “chromosome morphology” value is “caused chromosomes to form rings” and the “chromosomes exhibiting doughnut or ring shape” value worked out at 98%. Besides, in test [1] (lethal dose (5 μg/ml), two hours), the “distance between edge of chromosome and cell pole” value is given as “dramatic increase”. In [4], the “cytological profile (FIG. 1 summary)” value was “leads to a toroidal chromosome and wider cells”.
For `CC1=C(C(=O)O)N2C(=O)[C@@H](NC(=O)[C@H](N)c3ccccc3)[C@H]2SC1` [cephalexin], in test [1], the “cell length” value is given as “elongated”. In [4], the “cytological profile (FIG. 1 summary)” value is on record as “produces elongated cells with multiple chromosomes”. Besides, the “chromosome shape” value in [9] is reported as “chromosome shape is not affected”.
With `C[C@@H](O)[C@H](NC(=O)c1ccc(C#Cc2ccc(CN3CCOCC3)cc2)cc1)C(=O)NO` [CHIR-090], the “cytological profile (FIG. 1 summary)” value in [4] is reported as “produces chains of cells with increased permeability”.
On to `CC1(C)S[C@@H]2[C@H](NC(=O)Cc3ccccc3)C(=O)N2[C@H]1C(=O)O` [penicillin G], for which the “cytological phenotype” value in [5] was “cells with condensed chromosomes that lyse at various times”. For the same compound, the “cytological profile (FIG. 1 summary)” value in test [4] is “causes chromosome condensation and lysis”.
Take `COc1cc(Cc2cnc(N)nc2N)cc(OC)c1OC` [trimethoprim]: the “cytological profile (FIG. 1 summary)” value in [4] is listed as “condense the chromosome without affecting cell width”.
On to `CC1=C[C@]2(C)/C=C(C)/C=C/C[C@@H](O)/C=C3C=C/C(=C4\C(=O)O[C@]2(C[C@@H]1C)C4=O)OC/3` [Spirohexenolide A], for which the “DAPI staining intensity relative to untreated (WT) cells” value in test [7] is given as 5 ×. Besides, the antibacterial spectrum result in [8] is “active against gram positive bacteria and the E. coli imp mutant”.
With `[Na+].[O-]Cl` [bleach], the “cytological profile (FIG. 1 summary)” value in test [4] is “causes the chromosome to condense into a dramatic ribbon-like structure”.
Consider nisin, for which the “cytological phenotype” value in [5] is “increased DAPI and Sytox staining”. In addition, in test [6], the “effect on proton motive force / membrane polarization” value was “rapidly collapse the proton motive force (PMF)”. The “DAPI staining intensity relative to untreated (WT) cells” value in test [7] was 5 ×. Moreover, the “cytological profile (FIG. 1 summary)” value in test [4] is “show increased permeability at early times”.
Take `CN(C)[C@@H]1C(O)=C(C(N)=O)C(=O)[C@@]2(O)C(O)=C3C(=O)c4c(O)cccc4[C@@](C)(O)[C@H]3C[C@@H]12` [tetracycline]: the MIC in test [2] (LB, overnight at 30° C.) turned out to be 20 µg/mL (≈ 45 µM). In test [1], the “chromosomes exhibiting doughnut or ring shape” value was determined as 98%.
As for `N#CC(C#N)=NNc1cccc(Cl)c1` [CCCP], the “cytological phenotype” value in test [5] is “cells with uneven membrane staining and decondensed chromosomes”. Also, the “effect on proton motive force / membrane polarization” value in [6] is listed as “rapidly depolarizes the membranes”.
`NC[C@H]1O[C@H](O[C@H]2[C@H](O)[C@@H](O[C@H]3O[C@H](CO)[C@@H](O)[C@H](N)[C@H]3O)[C@H](N)C[C@@H]2N)[C@H](O)[C@@H](O)[C@@H]1O` [kanamycin]: the MIC in test [2] (LB, overnight at 30° C.) amounted to 50 µg/mL (≈ 103 µM).

The values are drawn from patent US20130324437A1, “METHOD FOR IDENTIFYING ANTIMICROBIAL COMPOUNDS AND DETERMINING ANTIBIOTIC SENSITIVITY” (THE REGENTS OF THE UNIVERSITY OF CALIFORNIA, priority 2010, published 2013).
